Source: patent US20220008500A1, “COMPOSITIONS AND METHODS FOR TREATING HEART FAILURE” (The George Washington University, priority 2017, published 2022)
Several values for one entry are separate records, joined by “and”; a condition that tells them apart may be missing. Identical values can stand only once.

How the values were obtained:
[1] = target: T1, DREADDs in PVN OXT neurons (Homo sapiens, UniProt P20309, A239G/Y149C)
Method: (§1) In this system one viral vector expresses Cre recombinase under an OXT promotor. The second vector expresses the excitatory hM3Dq DREADDs22. This is a Cre-dependent vector that has silencing double-floxed inverse open reading frames, which insures expression is only in OXT neurons that selectively express Cre. In each animal, 30-50 nl containing both viral vectors was selectively microinjected into the PVN over a 20 minutes period at 1 week of age.
Sprague-Dawley rats at 4 weeks of age that had DREADDS expression in PVN oxytocin neurons were anesthetized (isoflurane) and implanted with a telemetry device (HDX-11, DSI) with the pressure catheter inserted into the descending abdominal aorta to measure blood pressure (BP). The ECG leads of the device were inserted subcutaneously to measure HR. Rats were allowed to recover from this surgery for a week, followed by IP saline injections for 3 days to acclimate the animals to IP injections. […] One injection of one of the three solutions was administered each day on consecutive days.

[2] = target: T1, DREADDs in PVN OXT neurons; test: Ex vivo cardiac function of excised Langendorff perfused hearts during sinus rhythm; parameters: expressed in transfected cells; host or cells: PVN oxytocin neurons of Sprague-Dawley rats, transduced in vivo with a Cre-dependent (double-floxed inverse ORF) viral vector plus an OXT-promoter Cre vector; species or system Sprague-Dawley rats
Text: Pressure overload induced LV hypertrophy was initiated in male Sprague-Dawley rats using a minimally invasive trans-ascending aortic constriction (TAC) procedure. Rats at one week of age were aestheticized by hypothermia and underwent TAC surgery. A 0.5 cm incision was made at the level of the chest, the chest was opened and the thymus was retracted to reveal the aorta. A 4-0 silk suture was passed around the ascending aorta, and with a 25-gauge needle temporarily placed adjacent to the aorta, the suture was tied around both the aorta and needle (TAC and TAC+OXT groups). The needle was then removed, leaving the constricting suture around the aorta. Buprenorphine was applied as an analgesic. Successful constriction was confirmed upon examination of the aorta after each animal was sacrificed.
as §1, with “Additionally, selective activation of DREADDs in PVN OXT neurons decreases both mean arterial pressure and HR in telemetry instrumented conscious unrestrained animals. […] In this” for “In this”
TAC+OXT and OXT NORM animals received intraperitoneal (IP) injections of CNO (1 mg/kg) daily, beginning at 5 weeks of age until the animal was sacrificed.
At nine weeks of age rats were anesthetized with an IP injection of 0.2 mL Telazol and subject to isoflurane inhalation. Following cessation of pain reflexes, hearts were rapidly excised (n=26) and Langendorff perfused via the aorta at constant pressure (65 mmHg) and temperature (37° C.) with a Krebs-Henseleit solution containing (in mM) 115 NaCl, 3.3 KCl, 2.0 CaCl2, 1.4 MgSO4, 25.0 NaHCO3, 1.0 KH2PO4, 5.0 glucose, and 1.0 lactate. Perfusate was oxygenated with 95% 02-5% CO2. After a stabilization period of 10 minutes, a size 5 balloon (Harvard Apparatus) was inserted into the LV to measure isovolumic LV developed pressure (LVDP). Diastolic pressure was set to 10 mmHg and LVDP was computed as the difference between systolic and diastolic pressures. HR, LVDP, and coronary flow rate (CFR) were measured for at least 15 minutes during sinus rhythm. An isoproterenol (16504, Sigma Aldrich) dose response protocol was then administered using concentrations of 0.01, 0.1, 1, 10, 100, 1000 nM, and HR, LVDP, and CFR were measured at each concentration once function stabilized. After each study, rate pressure product (RPP), an indirect measure of LV work, was calculated as the product of HR and LVDP. Contractility and relaxation were measured as the maximum and minimum values of the first derivative of the LVP waveform, respectively, to assess inotropy and lusitropy.

[3] = acute activation of PVN OXT neurons by CNO, n=4
[4] = awake rats with DREADDs in PVN OXT neurons, CNO 1 mg/kg IP, acute
[5] = hearts of TAC rats given CNO 1 mg/kg IP daily
[6] = hearts of rats without TAC (OXT NORM) given CNO daily

T1 sequence (P20309 whole entry Y149C/A239G): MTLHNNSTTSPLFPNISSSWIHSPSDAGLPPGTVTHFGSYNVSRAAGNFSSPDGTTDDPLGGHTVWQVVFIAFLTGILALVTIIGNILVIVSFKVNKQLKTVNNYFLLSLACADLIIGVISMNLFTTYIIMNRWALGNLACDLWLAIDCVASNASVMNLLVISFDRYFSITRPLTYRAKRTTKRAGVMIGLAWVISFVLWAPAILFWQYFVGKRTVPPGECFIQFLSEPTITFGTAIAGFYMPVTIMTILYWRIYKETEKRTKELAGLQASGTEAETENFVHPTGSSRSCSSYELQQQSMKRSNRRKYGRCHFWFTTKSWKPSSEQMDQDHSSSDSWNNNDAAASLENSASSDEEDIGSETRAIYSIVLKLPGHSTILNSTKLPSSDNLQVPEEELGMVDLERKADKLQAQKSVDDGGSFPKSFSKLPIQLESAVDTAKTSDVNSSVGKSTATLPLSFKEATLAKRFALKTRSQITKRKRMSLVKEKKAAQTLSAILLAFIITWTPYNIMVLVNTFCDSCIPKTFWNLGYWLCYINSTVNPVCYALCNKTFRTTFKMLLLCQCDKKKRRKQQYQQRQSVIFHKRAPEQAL

SMILES: C[N+]1([O-])CCN(C2=Nc3cc(Cl)ccc3Nc3ccccc32)CC1 [CNO, clozapine N-oxide]
- Effect on BP (figure legend) [1, 3]: significantly reduced BP
- Effect on HR (figure legend) [1, 3]: significantly reduced HR
- Average reduction of HR [1, 4]: 56 bpm
- Average reduction of blood pressure [1, 4]: 13 mmHg
- Blood pressure after CNO ([1]; awake rats with DREADDs, CNO 1 mg/kg IP, before: 105.8±1.9 mmHg): 93.4±1.5 mmHg
- HR after CNO ([1]; awake rats with DREADDs, CNO 1 mg/kg IP, before: 475.4±15.9 bpm): 419±12.4 bpm
- LV contractility (maximum of first derivative of LVP) [2, 5]: 3,124±383 mmHg/s
- LV developed pressure (LVDP) [2, 5]: 126±14 mmHg
- LV relaxation (minimum of first derivative of LVP) [2, 5]: −2,203±231 mmHg/s
- Rate pressure product (RPP) [2, 5]: 26,874±4,036 mmHg*bpm
- Coronary flow rate (CFR) ([2]; hearts of TAC rats given CNO 1 mg/kg IP daily, baseline (no isoproterenol), listed as TAC+OXT): 13.8 ± 2.9 mL/min and 14 ± 2.9 mL/min
- Coronary flow rate (CFR) [2, 6]: 16 ± 1.9 mL/min
- LV contractility (maximum of first derivative of LVP) [2, 6]: 4,631±931 mmHg/s
- LV developed pressure (LVDP) [2, 6]: 127±16 mmHg
- LV relaxation (minimum of first derivative of LVP) [2, 6]: −2,926±397 mmHg/s
- Rate pressure product (RPP) [2, 6]: 26,978±2,274 mmHg*bpm
